Columns and labels:
Test in all cases: Phage-Mediated Detection of Staphylococcus aureus
Format in all cases: cell-based
[1] = tested on: Staphylococcus aureus strain 12600 (MSSA, ATCC)
Description: (§1) Samples of methicillin-resistant S. aureus (MRSA) were primed by adding 135 μl of samples containing S. aureus to rich media. The rich media included sub-inhibitory antibiotic (cefoxitin) to allow for specific enrichment and induction of MRSA. Samples were incubated in rich media for 1-2 hours. Following the priming of the samples, additional cefoxitin was added to the media and samples were incubated for an additional 2 hours. Staphylococcus aureus-specific bacteriophage NanoLuc Indicator phage was added to the samples and incubated for 2 hours. Lysis buffer and NANO-GLO® reagent were added. Following 5 minutes of incubation, measurements of bioluminescence were taken using a GLOMAX® 96 instrument. A signal/background ratio ≥750 RLU indicated positive detection of S. aureus. A signal/background ratio of <750 RLU indicated the sample was negative for S. aureus.

[2] = tested on: Staphylococcus aureus strain AR0463 (MRSA, CDC Panel)
Description: as §1

[3] = tested on: Staphylococcus aureus strain AR0465 (MRSA, CDC Panel)
Description: as §1

[4] = tested on: Staphylococcus aureus strain AR0468 (MRSA, CDC Panel)
Description: as §1

[5] = tested on: Staphylococcus aureus strain AR0470 (MRSA, CDC Panel)
Description: as §1

[6] = tested on: Staphylococcus aureus strain AR0472 (MRSA, CDC Panel)
Description: as §1

[7] = tested on: Staphylococcus aureus strain AR0473 (MRSA, CDC Panel)
Description: as §1

[8] = tested on: Staphylococcus aureus strain AR0477 (MRSA, CDC Panel)
Description: as §1

[9] = tested on: Staphylococcus aureus strain AR0481 (MRSA, CDC Panel)
Description: as §1

[10] = tested on: Staphylococcus aureus strain AR0482 (MRSA, CDC Panel)
Description: as §1

[11] = tested on: Staphylococcus aureus strain AR0485 (MSSA, CDC Panel)
Description: as §1

[12] = tested on: Staphylococcus aureus strain AR0486 (MSSA, CDC Panel)
Description: as §1

[13] = tested on: Staphylococcus aureus strain AR0487 (MSSA, CDC Panel)
Description: as §1

[14] = tested on: Staphylococcus aureus strain AR0488 (MSSA, CDC Panel)
Description: as §1

[15] = tested on: Staphylococcus aureus strain AR0489 (MSSA, CDC Panel)
Description: as §1

[16] = tested on: Staphylococcus aureus strain AR0491 (MSSA, CDC Panel)
Description: as §1

[17] = tested on: Staphylococcus aureus strain AR0492 (MSSA, CDC Panel)
Description: as §1

[18] = tested on: Staphylococcus aureus strain BAA-1720 (MRSA, ATCC); settings: detected CFU 16, cefoxitin 1.8 ug/mL
Description: as §1

[19] = tested on: Staphylococcus aureus strain BAA-1721 (MSSA, ATCC)
Description: as §1

[20] = tested on: Staphylococcus aureus strain BAA-2313 (MRSA, ATCC)
Description: as §1

[21] = tested on: Staphylococcus aureus strain BAA-42 (MRSA, ATCC)
Description: as §1

## CO[C@@]1(NC(=O)Cc2cccs2)C(=O)N2C(C(=O)O)=C(COC(N)=O)CS[C@@H]21 [Cefoxitin, cefoxitin]
[1]; detected CFU 59, cefoxitin 1.8 ug/mL
  Cefoxitin Concentration 1.8 ug/mL (indicator phage luminescence signal): 508 RLU
[1]; detected CFU 406, cefoxitin 1 ug/mL
  Cefoxitin Concentration 1 ug/mL (indicator phage luminescence signal): 18310 RLU
[1]; detected CFU 406, cefoxitin 2 ug/mL
  Cefoxitin Concentration 2 ug/mL (indicator phage luminescence signal): 178 RLU
[1]; detected CFU 406, cefoxitin 4 ug/mL
  Cefoxitin Concentration 4 ug/mL (indicator phage luminescence signal): 196 RLU
[2]; detected CFU 28, cefoxitin 1.8 ug/mL
  Cefoxitin Concentration 1.8 ug/mL (indicator phage luminescence signal): 1941 RLU
[2]; detected CFU 265, cefoxitin 1 ug/mL
  Cefoxitin Concentration 1 ug/mL (indicator phage luminescence signal): 8987 RLU
[2]; detected CFU 265, cefoxitin 2 ug/mL
  Cefoxitin Concentration 2 ug/mL (indicator phage luminescence signal): 3377 RLU
[2]; detected CFU 265, cefoxitin 4 ug/mL
  Cefoxitin Concentration 4 ug/mL (indicator phage luminescence signal): 339 RLU
[3]; detected CFU 101, cefoxitin 1 ug/mL
  Cefoxitin Concentration 1 ug/mL (indicator phage luminescence signal): 8263 RLU
[3]; detected CFU 101, cefoxitin 2 ug/mL
  Cefoxitin Concentration 2 ug/mL (indicator phage luminescence signal): 4086 RLU
[3]; detected CFU 101, cefoxitin 4 ug/mL
  Cefoxitin Concentration 4 ug/mL (indicator phage luminescence signal): 3006 RLU
[4]; detected CFU 169, cefoxitin 1 ug/mL
  Cefoxitin Concentration 1 ug/mL (indicator phage luminescence signal): 10330 RLU
[4]; detected CFU 169, cefoxitin 2 ug/mL
  Cefoxitin Concentration 2 ug/mL (indicator phage luminescence signal): 10070 RLU
[4]; detected CFU 169, cefoxitin 4 ug/mL
  Cefoxitin Concentration 4 ug/mL (indicator phage luminescence signal): 5002 RLU
[5]; detected CFU 215, cefoxitin 1 ug/mL
  Cefoxitin Concentration 1 ug/mL (indicator phage luminescence signal): 3502 RLU
[5]; detected CFU 215, cefoxitin 2 ug/mL
  Cefoxitin Concentration 2 ug/mL (indicator phage luminescence signal): 1846 RLU
[5]; detected CFU 215, cefoxitin 4 ug/mL
  Cefoxitin Concentration 4 ug/mL (indicator phage luminescence signal): 179 RLU
[6]; detected CFU 14, cefoxitin 1.8 ug/mL
  Cefoxitin Concentration 1.8 ug/mL (indicator phage luminescence signal): 2694 RLU
[6]; detected CFU 142, cefoxitin 1 ug/mL
  Cefoxitin Concentration 1 ug/mL (indicator phage luminescence signal): 72720 RLU
[6]; detected CFU 142, cefoxitin 2 ug/mL
  Cefoxitin Concentration 2 ug/mL (indicator phage luminescence signal): 19210 RLU
[6]; detected CFU 142, cefoxitin 4 ug/mL
  Cefoxitin Concentration 4 ug/mL (indicator phage luminescence signal): 240 RLU
[7]; detected CFU 219, cefoxitin 1 ug/mL
  Cefoxitin Concentration 1 ug/mL (indicator phage luminescence signal): 60000 RLU
[7]; detected CFU 219, cefoxitin 2 ug/mL
  Cefoxitin Concentration 2 ug/mL (indicator phage luminescence signal): 17500 RLU
[7]; detected CFU 219, cefoxitin 4 ug/mL
  Cefoxitin Concentration 4 ug/mL (indicator phage luminescence signal): 338 RLU
[8]; detected CFU 471, cefoxitin 1 ug/mL
  Cefoxitin Concentration 1 ug/mL (indicator phage luminescence signal): 478000 RLU
[8]; detected CFU 471, cefoxitin 2 ug/mL
  Cefoxitin Concentration 2 ug/mL (indicator phage luminescence signal): 95970 RLU
[8]; detected CFU 471, cefoxitin 4 ug/mL
  Cefoxitin Concentration 4 ug/mL (indicator phage luminescence signal): 4068 RLU
[9]; detected CFU 82, cefoxitin 1 ug/mL
  Cefoxitin Concentration 1 ug/mL (indicator phage luminescence signal): 150100 RLU
[9]; detected CFU 82, cefoxitin 2 ug/mL
  Cefoxitin Concentration 2 ug/mL (indicator phage luminescence signal): 109000 RLU
[9]; detected CFU 82, cefoxitin 4 ug/mL
  Cefoxitin Concentration 4 ug/mL (indicator phage luminescence signal): 27170 RLU
[10]; detected CFU 75, cefoxitin 1 ug/mL
  Cefoxitin Concentration 1 ug/mL (indicator phage luminescence signal): 6741 RLU
[10]; detected CFU 75, cefoxitin 2 ug/mL
  Cefoxitin Concentration 2 ug/mL (indicator phage luminescence signal): 2477 RLU
[10]; detected CFU 75, cefoxitin 4 ug/mL
  Cefoxitin Concentration 4 ug/mL (indicator phage luminescence signal): 204 RLU
[11]; detected CFU 190, cefoxitin 1 ug/mL
  Cefoxitin Concentration 1 ug/mL (indicator phage luminescence signal): 13930 RLU
[11]; detected CFU 190, cefoxitin 2 ug/mL
  Cefoxitin Concentration 2 ug/mL (indicator phage luminescence signal): 236 RLU
[11]; detected CFU 190, cefoxitin 4 ug/mL
  Cefoxitin Concentration 4 ug/mL (indicator phage luminescence signal): 301 RLU
[12]; detected CFU 220, cefoxitin 1 ug/mL
  Cefoxitin Concentration 1 ug/mL (indicator phage luminescence signal): 9217 RLU
[12]; detected CFU 220, cefoxitin 4 ug/mL
  Cefoxitin Concentration 4 ug/mL (indicator phage luminescence signal): 252 RLU
[13]; detected CFU 221, cefoxitin 1 ug/mL
  Cefoxitin Concentration 1 ug/mL (indicator phage luminescence signal): 10420 RLU
[13]; detected CFU 221, cefoxitin 2 ug/mL
  Cefoxitin Concentration 2 ug/mL (indicator phage luminescence signal): 167 RLU
[13]; detected CFU 221, cefoxitin 4 ug/mL
  Cefoxitin Concentration 4 ug/mL (indicator phage luminescence signal): 188 RLU
[14]; detected CFU 151, cefoxitin 1 ug/mL
  Cefoxitin Concentration 1 ug/mL (indicator phage luminescence signal): 15430 RLU
[14]; detected CFU 151, cefoxitin 2 ug/mL
  Cefoxitin Concentration 2 ug/mL (indicator phage luminescence signal): 207 RLU
[14]; detected CFU 151, cefoxitin 4 ug/mL
  Cefoxitin Concentration 4 ug/mL (indicator phage luminescence signal): 197 RLU
[15]; detected CFU 144, cefoxitin 1 ug/mL
  Cefoxitin Concentration 1 ug/mL (indicator phage luminescence signal): 30590 RLU
[15]; detected CFU 144, cefoxitin 2 ug/mL
  Cefoxitin Concentration 2 ug/mL (indicator phage luminescence signal): 188 RLU
[15]; detected CFU 144, cefoxitin 4 ug/mL
  Cefoxitin Concentration 4 ug/mL (indicator phage luminescence signal): 207 RLU
[16]; detected CFU 217, cefoxitin 1 ug/mL
  Cefoxitin Concentration 1 ug/mL (indicator phage luminescence signal): 40760 RLU
[16]; detected CFU 217, cefoxitin 2 ug/mL
  Cefoxitin Concentration 2 ug/mL (indicator phage luminescence signal): 215 RLU
[16]; detected CFU 217, cefoxitin 4 ug/mL
  Cefoxitin Concentration 4 ug/mL (indicator phage luminescence signal): 266 RLU
[17]; detected CFU 178, cefoxitin 1 ug/mL
  Cefoxitin Concentration 1 ug/mL (indicator phage luminescence signal): 13040 RLU
[17]; detected CFU 178, cefoxitin 2 ug/mL
  Cefoxitin Concentration 2 ug/mL (indicator phage luminescence signal): 194 RLU
[18]
  Cefoxitin Concentration 1.8 ug/mL (indicator phage luminescence signal): 4034 RLU
[19]; detected CFU 197, cefoxitin 1 ug/mL
  Cefoxitin Concentration 1 ug/mL (indicator phage luminescence signal): 21900 RLU
[19]; detected CFU 197, cefoxitin 2 ug/mL
  Cefoxitin Concentration 2 ug/mL (indicator phage luminescence signal): 172 RLU
[19]; detected CFU 197, cefoxitin 4 ug/mL
  Cefoxitin Concentration 4 ug/mL (indicator phage luminescence signal): 164 RLU
[20]; detected CFU 192, cefoxitin 1 ug/mL
  Cefoxitin Concentration 1 ug/mL (indicator phage luminescence signal): 363300 RLU
[20]; detected CFU 192, cefoxitin 2 ug/mL
  Cefoxitin Concentration 2 ug/mL (indicator phage luminescence signal): 52440 RLU
[20]; detected CFU 192, cefoxitin 4 ug/mL
  Cefoxitin Concentration 4 ug/mL (indicator phage luminescence signal): 2409 RLU
[21]; detected CFU 165, cefoxitin 1 ug/mL
  Cefoxitin Concentration 1 ug/mL (indicator phage luminescence signal): 8634 RLU
[21]; detected CFU 165, cefoxitin 2 ug/mL
  Cefoxitin Concentration 2 ug/mL (indicator phage luminescence signal): 775 RLU
[21]; detected CFU 165, cefoxitin 4 ug/mL
  Cefoxitin Concentration 4 ug/mL (indicator phage luminescence signal): 240 RLU

From US20210079443A1, “INDICATOR BAC[…] SELECTING AND […] EFFICACY OF THERAPEUTICS AND METHODS FOR USING SAME” (priority 2018, published 2021)
